How the values were obtained:
C. elegans = test: Lifespan assay (survival curves); assay type: in vivo, Caenorhabditis elegans; conditions: for Lifespan / early mortality (survival curves): glod-4 mutant animals, PA, LA, or UMP (20 pM) vs EtOH control
Experimental: Life span assays were performed in Thermo Scientific Precision incubators at 20° C. After alkaline hypochlorite treatment, synchronized L1 animals were either placed onto NGM plates seeded with 5× concentrated E. coli OP50-1 (cultured on Lysogeny Broth/LB overnight) or on RNAi plates supplemented with 20×HT1115 RNAi bacteria. Post-L4 stage of development, all lifespan assays were performed using FUdR (5-fluoro-2 deoxyuridine) plates to inhibit development and growth of progeny. Every two days, animals were transferred on to new 60 mm NGM or RNAi plates freshly seeded with OP50-1 or HT1115 bacteria (with or without drug), respectively. 90-120 animals were considered for each lifespan experiment. Animal viability was assessed visually or with gentle prodding on the head. Animals were censored in the event of internal hatching of the larvae, body rupture, or crawling of larvae from the plates.

SKN-1/Nrf2 = test: SKN-1 activation assay (GFP reporters for SKN-1, gst-4, gcs-1; qPCR); assay type: in vivo, Caenorhabditis elegans; conditions: for Expression of gst-4 (GFP foci) under trpa-1 knockdown: glod-4;gst-4p::gfp animals, PA or LA (20 pM); for SKN-1 activation (GFP foci in gst-4p::gfp): gst-4p::gfp animals on EV or glod-4 RNAi, PA, LA, or UMP (20 pM)
Experimental: Adult animals were examined for SKN-1/Nrf2 activation using GFP reporters for both SKN-1 and SKN-1 target genes: gst-4 and gcs-1. For exogenous MGO and drug assays, age-synchronized GFP reporter strains were subject to control and treatment conditions for a period of 4-6 hours before microscopy. For RNAi-induced activation studies, GFP reporter strains were fed on HT1115 bacteria expressing empty vector pL4440 or RNAi gene from L1 stage. Synchronized day 1 adult animals were then subjected to microscopic examination. Activation of SKN-1 using SKN-1 fusion reporter was determined as described earlier (An et al. (2003) Genes & Dev. 17: 1882-1893; Onken and Driscoll (2010) PloS One, 5: e8758). Scoring for downstream SKN-1 targets carrying GFP reporter for gcs-1 promoter was performed based on a previous study (Wang et al. (2010) PLoS Genetics, doi. org/10.1371/journal.pgen.1001048) and categorized as follows: ‘high’ for strong GFP signal throughout the intestine, ‘medium’ for GFP signal in the anterior or posterior section of the intestine and ‘low’ for weak or no signal. For animals with gst-4 promoters carrying GFP reporters number of GST-4 positive foci was counted under different conditions as described previously (Fensgardet al. (2010) Aging, 2: 133-159). Quantification of acquired images was done using the Image J™ software (//imagej.nih.gov/ij/).
Total RNA was extracted from nearly 100 age-synchronized adult animals picked and collected in 20 pl of M9 buffer using TRIzol reagent (Life Technologies, CA). Subsequently, 1 pg total RNA was used as template for cDNA synthesis. cDNA was synthesized using the ISCRIPT™ cDNA synthesis kit (Bio-Rad, CA) following manufacturer's protocol. qRT-PCR was carried out using the SensiFAST SYBR No-ROX kit (Bioline, MA) in a LightCycler 480 Real-Time PCR system (Roche Diagnostics Corp., IN). Quantification was performed using the comparative AACt method and normalization for internal reference was done using actin gene act-1.

TRPA-1 = biological target: T1, TRPA-1 (Caenorhabditis elegans, UniProt Q18297); test: Ca2+ flux-based channel study in C. elegans (intestinal GCaMP1.3), wild-type TRPA-1; assay type: in vivo; conditions: for Ca2+ flux (percentage change in peak GCaMP1.3 fluorescence intensity): wild-type TRPA-1, PA or LA (20 pM)
T1 construct: TQ3056: XuIs180[plfe2b::GCaMP1.3+plfe-2b::dsred];N2; endogenous in cells; host or cells: whole C. elegans animals, N2 background with intestinal GCaMP1.3 (strain TQ3056)
T1 sequence (Q18297 1-1211): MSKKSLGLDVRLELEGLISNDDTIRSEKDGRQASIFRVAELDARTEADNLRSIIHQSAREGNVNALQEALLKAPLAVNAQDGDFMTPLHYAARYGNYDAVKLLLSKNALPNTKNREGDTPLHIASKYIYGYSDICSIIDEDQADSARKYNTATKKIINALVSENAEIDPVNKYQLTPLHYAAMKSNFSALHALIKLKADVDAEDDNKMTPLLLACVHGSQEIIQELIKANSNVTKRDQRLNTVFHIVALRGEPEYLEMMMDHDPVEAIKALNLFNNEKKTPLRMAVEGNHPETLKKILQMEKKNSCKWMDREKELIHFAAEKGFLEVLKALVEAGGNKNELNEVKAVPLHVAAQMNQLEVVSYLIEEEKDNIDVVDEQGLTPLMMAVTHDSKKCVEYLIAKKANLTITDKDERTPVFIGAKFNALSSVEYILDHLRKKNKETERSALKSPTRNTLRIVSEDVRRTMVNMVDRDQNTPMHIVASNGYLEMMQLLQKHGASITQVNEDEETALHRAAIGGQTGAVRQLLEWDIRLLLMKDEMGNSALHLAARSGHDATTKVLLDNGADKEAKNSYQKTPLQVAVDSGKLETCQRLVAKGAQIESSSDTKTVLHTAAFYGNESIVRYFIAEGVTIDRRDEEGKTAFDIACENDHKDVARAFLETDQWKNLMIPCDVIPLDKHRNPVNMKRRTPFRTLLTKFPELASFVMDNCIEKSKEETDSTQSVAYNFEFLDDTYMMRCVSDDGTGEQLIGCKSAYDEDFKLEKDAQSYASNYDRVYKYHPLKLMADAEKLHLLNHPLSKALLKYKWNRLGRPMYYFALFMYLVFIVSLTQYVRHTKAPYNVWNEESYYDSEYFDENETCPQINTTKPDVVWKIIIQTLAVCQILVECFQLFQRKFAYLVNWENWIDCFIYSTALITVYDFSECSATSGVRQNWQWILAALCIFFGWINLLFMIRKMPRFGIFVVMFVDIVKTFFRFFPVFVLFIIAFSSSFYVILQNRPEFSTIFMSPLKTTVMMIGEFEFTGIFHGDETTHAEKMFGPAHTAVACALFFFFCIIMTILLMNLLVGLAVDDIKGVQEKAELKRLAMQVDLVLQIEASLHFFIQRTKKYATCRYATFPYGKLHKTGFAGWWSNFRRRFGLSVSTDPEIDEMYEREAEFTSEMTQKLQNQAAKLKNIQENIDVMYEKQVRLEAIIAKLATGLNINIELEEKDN
Experimental: (§1) Ca^2+ flux was measured using an upright Olympus compound microscope (BX51) under a 40× objective. Real time sequential G-CaMP1.3 fluorescent images were captured using Hamamatsu Ocra-ER digital CCD camera at a frame rate of 10 frames per second and for a span of 300 frames. Acquired images were analyzed for further intensity measurements using HC Image software v. 1.1.3.0 (Hamamatsu Corp., NJ). Percentage change in fluorescent peak intensity was estimated using the intensity values generated real time by the program.

[1] = biological target: T2, TRPA-1^E1018A (Ca^2+ impermeable) mutant channel (Caenorhabditis elegans, UniProt Q18297, E1018A); test: Ca2+ flux-based channel study in C. elegans (intestinal GCaMP1.3), TRPA-1^E1018A mutant channel; assay type: in vivo; conditions: Ca^+2-impermeable TRPA-1^E1018A channel; for Ca2+ flux (percentage change in peak GCaMP1.3 fluorescence intensity): PA or LA (20 pM)
T2 construct: expressed in transfected cells; host or cells: transgenic C. elegans (strain TQ2772), ges-1 promoter (intestine), trpa-1(ok999) background, with GCaMP1.3
Experimental: as §1

T2 sequence (Q18297 whole entry E1018A): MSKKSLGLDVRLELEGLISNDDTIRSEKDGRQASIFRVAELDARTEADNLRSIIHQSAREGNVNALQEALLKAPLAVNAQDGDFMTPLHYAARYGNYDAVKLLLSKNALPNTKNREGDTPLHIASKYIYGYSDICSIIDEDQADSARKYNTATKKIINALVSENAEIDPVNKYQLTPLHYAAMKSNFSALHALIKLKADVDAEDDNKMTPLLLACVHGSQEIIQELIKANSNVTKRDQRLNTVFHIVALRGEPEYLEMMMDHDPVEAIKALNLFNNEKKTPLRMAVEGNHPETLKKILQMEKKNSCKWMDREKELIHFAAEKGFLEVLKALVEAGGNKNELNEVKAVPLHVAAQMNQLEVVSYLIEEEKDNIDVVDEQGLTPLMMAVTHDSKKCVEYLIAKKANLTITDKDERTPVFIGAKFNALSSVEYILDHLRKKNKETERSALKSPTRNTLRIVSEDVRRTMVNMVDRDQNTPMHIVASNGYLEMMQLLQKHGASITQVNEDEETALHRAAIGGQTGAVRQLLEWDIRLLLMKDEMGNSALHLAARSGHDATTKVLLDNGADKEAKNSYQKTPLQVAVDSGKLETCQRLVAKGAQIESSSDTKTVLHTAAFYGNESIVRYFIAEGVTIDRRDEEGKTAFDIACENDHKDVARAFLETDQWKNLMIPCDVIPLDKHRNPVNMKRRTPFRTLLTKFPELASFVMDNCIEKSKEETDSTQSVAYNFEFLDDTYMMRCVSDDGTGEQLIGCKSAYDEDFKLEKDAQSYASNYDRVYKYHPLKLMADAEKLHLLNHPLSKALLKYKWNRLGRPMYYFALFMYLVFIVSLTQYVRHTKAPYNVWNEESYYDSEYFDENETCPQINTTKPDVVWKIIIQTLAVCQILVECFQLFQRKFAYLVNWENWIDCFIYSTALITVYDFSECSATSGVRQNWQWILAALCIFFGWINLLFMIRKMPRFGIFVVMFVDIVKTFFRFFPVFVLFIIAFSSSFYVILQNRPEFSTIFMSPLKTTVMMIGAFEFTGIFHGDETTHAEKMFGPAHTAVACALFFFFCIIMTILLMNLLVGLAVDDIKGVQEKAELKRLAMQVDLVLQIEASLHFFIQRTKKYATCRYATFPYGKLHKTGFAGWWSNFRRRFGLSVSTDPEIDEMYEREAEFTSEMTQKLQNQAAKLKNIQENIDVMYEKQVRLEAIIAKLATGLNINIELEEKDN

Row | Compound | Lifespan / early mortality (survival curves) (C. elegans) | Expression of gst-4 (GFP foci) under trpa-1 knockdown (SKN-1/Nrf2; trpa-1 RNAi) | SKN-1 activation (GFP foci in gst-4p::gfp) (SKN-1/Nrf2) | Ca2+ flux (percentage change in peak GCaMP1.3 fluorescence intensity) (TRPA-1) | Ca2+ flux (percentage change in peak GCaMP1.3 fluorescence intensity) [1] | Lifespan (survival curves) (C. elegans; N2 animals, 7 mM MGO vs water) | SKN-1 nuclear localization (SKN-1::GFP) (SKN-1/Nrf2; 7 mM MGO vs water) | Expression of SKN-1 reporters gst-4 and gcs-1 on trpa-1 knockdown (SKN-1/Nrf2; MGO-treated wild-type animals, 7 mM MGO, trpa-1 RNAi) | SKN-1/Nrf2 activation (gst-4 and gcs-1, GFP reporter and RT-PCR) (SKN-1/Nrf2; exogenous MGO treatment, 7 mM vs water) | Ca2+ response (G-CaMP1.3 sensor) (TRPA-1; functional (wild-type) TRPA-1 channel, 7 mM MGO vs water) | Ca2+ response (G-CaMP1.3 sensor) ([1]; 7 mM MGO)
1 | O=C(O)CCCCC1CCSS1 (stereo not shown) [LA, a-lipoic acid] | performed similar to PA | significantly reduced to wild-type levels | SKN-1 activation was observed | robust Ca+^2 flux | significantly reduced | – | – | – | – | – | –
2 | CC(=O)C=O [MGO, methylglyoxal] | – | – | – | – | – | early mortality | undergo nuclear localization | significantly reduced | significant SKN-1/Nrf2 activation | robust Ca^2+ response | basal responses
3 | C[C@]1(C(=O)O)CCC[C@]2(C)c3cc(O)ccc3CC[C@@H]12 [PA, podocarpic acid] | able to prevent | significantly reduced to wild-type levels | activates SKN-1 | robust Ca+^2 flux | significantly reduced | – | – | – | – | – | –
